We go through one molecule from article PMC9762789, “Chromone-based monoamine oxidase B inhibitor with potential iron-chelating activity for the treatment of Alzheimer’s disease” (Journal of Enzyme Inhibition and Medicinal Chemistry, 2022).

Where two headings read alike, the source gives them in different places.

The nature of data set [1]: iron (III) affinity constants and pFe3+ by spectrophotometric titration. The class given is physicochemical.
The subject of data set [2] is scopolamine-induced cognitive impairment mice model. Put plainly: Morris water maze test, scopolamine-induced memory impairment. The class given is in vivo, ICR mice. An excerpt: To further explore the in vivo anti-AD effect of compound 17d on the scopolamine-induced cognitive impairment mice model, the Morris Water Maze experiment was selected; data are shown in Figure 7 and Table 5.
Figure 7.
Adult female ICR mice (weight 20–25 g) were obtained from the Zhejiang Academy of Medical Sciences (Hangzhou, China). Scopolamine hydrobromide and Pargyline were purchased from Aladdin Reagents. Memantine was purchased from Energy Chemical. All experiments were approved by the Laboratory Animals Ethical Committee of the Zhejiang University of Technology (No. 20211210103). In this test, mice were prepared as clarified and clear injections, consisting of 20% (2-Hydroxypropyl)-β-cyclodextrin, 10% DMSO, and PBS. […] Mice were administered at a frequency of once a day over 15 d with a fixed dosing schedule. The body weight of mice was measured during the experiment.
After eliminating environmental stress, the behavioural test was performed over the next five days. The mice were trained to find the platform (10 cm diameter) in the circular light-avoidance pool (120 cm diameter and 60 cm height) filled with water (40 cm, depth), which was described in detail in our previous study. All mice received at least one training session daily in four quadrants for four consecutive days before the probe trial of finding the platform within 120 s. Recordings were made with SMART version 3.0 (Panlab, Spain) and processed by Graphpad Prism version 6 software (Graphpad Software Inc., La Jolla, CA, USA).

Data set [3] can be described thus: Pharmacokinetic study and brain distribution (UHPLC-MS/MS). The note with it: rats; for AUC(0-t): read-out: AUC0–24; for MRT inf: read-out: MRT0–∞. The format is in vivo. Here is the method: UHPLC-MS/MS method was adopted to investigate the pharmacokinetic profiles of its metabolites after intravenous (i.v.) administration (2.34 mg/kg) and intragastric (i.g.) administration (15 mg/kg) of 17d in the tail vein of rats.
Rats were purchased from the Zhejiang Academy of Medical Sciences (Hangzhou, China). All rats were kept strictly following the requirements of experimental animal operation instructions, kept at a temperature (22 ± 2 °C), day/night cycle every 12 h in a constant environment. 12 h before the experiment, the rats were fasted but free to drink. For each rat, retro-orbital blood samples (0.2 ml) were obtained into EDTA soaked polythene tubes before drug administration and at time points of 0.083, 0.25, 0.50, 0.75, 1.0, 2.0, 4.0, 6.0, 8.0, 10, 12, and 24 h post-dosing. The collected blood samples were immediately centrifuged at 3500 rpm for 10 min at room temperature to separate plasma, and stored in a −80 °C refrigerator before use. […] The tissue was weighed and homogenised under ice bath conditions and was collected for further processing.
Biological samples were performed with ACQUITY UPLC® H Class system, which was coupled to an Xevo TQ-S micro triple quadrupole mass spectrometer (Waters, Milford, MA, USA) with an ESI source and MassLynx^TM Workstation software version 4.2 (Waters, Milford, MA, USA). We used a BEH Shield RP C18 column (100 × 2.1 mm, 1.7 µm, Waters, Milford, MA, USA) for chromatographic separation, and the column temperature is kept at 30 °C. The mobile phase was composed of 30%, 0.2% formic acid aqueous solution (A) and 70%, 0.3% formic acid methanol solution (B) and is delivered at a flow rate of 0.2 ml/min. The temperature of the autosampler is set to 30 °C. The sample injection volume is 5 µl. Pharmacokinetic parameters of the analytes were calculated using the pharmacokinetic software DAS version 2.0 (Bontz Inc., Beijing, China). All data were expressed as mean ± SD.

Setting [4] is: DMSO: KCl (0.1 M) = 1:1.5 (v/v).
The mark [5] stands for this setting: rat, plasma, iv, i.v. 2.34 mg/kg, mean ± SD, n = 3.
Where [6] appears, read: rat, plasma, po, i.g. 15 mg/kg, mean ± SD, n = 3.

By AUC(0-inf) is commonly meant total exposure, with the tail of the curve extrapolated. In general, Cmax refers to the peak of the concentration-time curve. What is called Tmax is the time from dosing to the highest level. As usually defined, the clearance is the volume of plasma or blood freed of the substance per unit of time. Read a high clearance as efficient removal. In general, half-life refers to the time needed for the level to fall by half in the phase considered. The low end stands for fast loss, the high end for slow loss. One may read the bioavailability as the share of a dose that reaches the circulation, judged against a reference dose that is usually intravenous. On to `COc1ccc2c(=O)c(CNCCn3ccc(=O)c(O)c3C)coc2c1` [Compound 17d, 3-Hydroxy-1–(2-(((7-methoxy-4-oxo-4H-chromen-3-yl)methyl)amino)ethyl)-2-methylpyridin-4(1H)-one], for which, in data set [1] (setting [4]), the “Log β1” value amounted to 13.50, the “Log β2” value came out at 25.21 and the “Log β3” value turned out to be 35.13. The “pFe^3+” value in data set [1] (calculated from Log β values obtained in DMSO: KCl (0.1 M) = 1:1.5 (v/v)) is 18.52. In data set [2] (15 mg/kg once a day, after ten days), the “body weight of mice” value is listed as “increased after ten days”. For the same molecule, the scopolamine-induced cognitive impairment entry in data set [2] (15 mg/kg, mice, Morris water maze) is given as “significantly ameliorated”. In addition, in data set [2] (15 mg/kg, scopolamine 15 mg/kg, ICR mice, mean ± SEM, n = 15), the Entries to target amounted to 3.3 ± 0.3. Also, in data set [3] (setting [5]), the AUC(0-inf) was 749 ± 87.1 ng·h/mL, the concentration peaked (Cmax) at 2150 ± 637 ng/mL, the Tmax was 4.98 min and the clearance was 52.5 mL/min/kg. Moreover, in data set [3] (setting [5]), the half-life was 19.2 min, the AUC(0-t) came to 745 ± 88.4 ng·h/mL and the MRT inf was determined as 15 ± 4.8 min. Besides, in data set [3] (rat, plasma, oral, i.g. 15 mg/kg vs i.v. 2.34 mg/kg, read-out: F (bioavailability)), the bioavailability was found to be 9.25%. For the same molecule, in data set [3] (setting [6]), the AUC(0-inf) was 444 ± 65.3 ng·h/mL, the Cmax came out at 390 ± 50.1 ng/mL, the Tmax stood at 15 min and the half-life is 30.6 ± 10.8 min. In addition, in data set [3] (setting [6]), the AUC(0-t) came out at 439 ± 59.6 ng·h/mL and the MRT inf came out at 48.6 ± 5.4 min. Moreover, the “Brain 17d content” value in data set [3] (i.g. 15 mg/kg, collected at Cmax time point) stood at 6.02 ± 0.08 ng/g. In addition, the V in data set [3] (i.v. 2.34 mg/kg, mean ± SD, n = 3) is 1.46 ± 0.19 L/kg.
